Source: patent publication US20090137565A1, “Method for treatment of movement disorders” (The Trustees of Columbia University in the City of New York, priority 2004, published 2009)

What was measured:
Type in all cases: in vivo, human
[1] = Single-patient GHB trial: tolerability / adverse events
Method: All office visits and the UMRS scale were performed by the supervisory physician. The patient came to the office for five visits, each separated by two weeks (time 0, 2 weeks, 4 weeks, 6 weeks and 8 weeks). At each visit, the physician examined the patient, and inquired about any adverse events. The physician performed the UMRS while the patient was videotaped. Xyrem® was dispensed by the physician at each visit.
At the initial visit the UMRS was performed and videotaped, 1 gm of GHB was administered by mouth, and they were monitored in the office for one hour. They then took 1 gm twice daily for two weeks, at which time they returned to the office. One hour after receiving 2 grams of GHB, the UMRS was performed and videotaped and for the next two weeks they took 2 grams twice daily. Two weeks later, the UMRS was performed and videotaped one hour after receiving 3 grams of GHB, and after two weeks of 3 grams twice daily, the same procedure was performed after receiving 4 grams in the office. After taking 4 grams twice daily for two weeks, they returned for UMRS videotaping, and the decision was made to continue the target dose of 4 gm twice daily.
The clinical trial was designed with a very slow titration schedule, in order to prevent possible side effects such as sedation, worsening of ataxia or orthostasis. Like most forms of myoclonus, posthypoxic myoclonus disappears during sleep and it is therefore necessary to administer the drug during waking hours in order to observe its effects.

[2] = system: medication-refractory, ethanol-responsive myoclonus (PHM, MD, PME); test: Twenty-patient open-label trial of sodium oxybate, blinded UMRS (myoclonus patients); conditions: for Stim-sens. myoclonus score: dose 0 score 5.8; for Functional performance score: dose 0 score 12.9; for Action myoclonus score: dose 0 score 45.3; for Myoclonus at rest score: dose 0 score 7.4
Description: Twenty patients age 18 or older were recruited from a clinical practice at the Movement Disorders Division of Columbia University Medical Center. Eligible patients with medication-refractory, ethanol-responsive myoclonus (6 PHM, 3 MD, 2 PME) or ET (9 patients) (Table 1) were offered enrollment from February 2004 to March 2005. The medical center's institutional review board approved the protocol, and written informed consent was obtained from all participants. All had myoclonus or ET that improved (by self-report) with ingestion of ethanol. All patients were medication-refractory, defined as obtaining inadequate benefit from best medical treatment or being unable to tolerate treatment. The dose and timing of other medications were kept constant before and during the trial.
(§1) Twelve men and 8 women enrolled. Results from patients #6, and #s 1, 2, 7, 12, and 13 were reported previously. Frucht, S. J., et al. Mov Disord 20:745-51 (2005); Frucht, S. J., et al. Mov Disord 20:1330-7 (2005). Mean age/symptom duration was 43.9 yrs/12.3 yrs (myoclonus) and 71.2 yrs/26.7 yrs (ET). Patients with myoclonus were examined and videotaped at each visit using the Unified Myoclonus Rating Scale (UMRS), and patients with ET were examined and videotaped using the modified Washington Heights Inwood Genetic Essential Tremor Rating Scale (WHIGET; Appendix 1). Frucht, S. J., et al. Mov Disord 20:1330-7 (2005). After initial baseline examination and videotaping, patients took 1 gm of sodium oxybate by mouth (2 ml of the standard 0.5 gm/ml solution dissolved in 60 ml of water), and one hour later the videotaped examination was repeated. Patients were maintained on a dose of 1 gm T.I.D. (taken before meals) until their next office visit two weeks later, when the examination and videotaping were repeated one hour after receiving 1.5 gm of sodium oxybate. Subsequent visits and dose titrations at two-week intervals were repeated until the maximum dose was reached (3 gm T.I.D), patients were satisfied with the results of treatment, or until they developed side effects that they viewed as troublesome. Dosing for patients #1, 2, 6, 7, 12, and 13 was slightly different (1 gm BID, with dose increments of 2 gm to maximum dose of 4 gm BID), but office visits and videotaping protocol were otherwise identical.
The entire videotape segments and writing samples from each visit were copied and randomly ordered, and identifying features that might reveal trial order or drug dose were removed. A blinded movement disorder neurologist scored each videotape segment using the UMRS or the WHIGET. Sub-scores for each visit were calculated as described previously. Frucht, S. J., et al. Mov Disord 20:1330-7 (2005). Based on data from the first two ET cases, and assuming alpha=0.05, power=80%, and a 25% reduction in post-treatment tremor severity, we calculated that eight ET cases were required. A similar number of myoclonus patients would provide >80% power to detect a 25% reduction in the severity of post-treatment action myoclonus. Paired t tests were performed for scores pre- and post-treatment.

[3] = Twenty-patient trial: side effects and tolerability; conditions: twenty patients
Description: as §1

SMILES: O=C([O-])CCCO.[Na+] [GHB, 4-hydroxybutanoic acid monosodium salt]
- adverse effect reported by patient ([1]; after the first 1 gm dose): slight dizziness
- tolerability ([1]; divided doses during the day): well tolerated
- sedation ([1]; two daytime doses of 4 gm, concurrent clonazepam and levetiracetam): without significant sedation
- Stim-sens. myoclonus score ([2]; 1 gm, p 0.01**): 3.2 (0.01)**
- Functional performance score ([2]; 1 gm, p 0.044*): 11.0 (0.044)*
- Action myoclonus score ([2]; 1 gm, p 0.047*): 33.4 (0.047)*
- Functional performance score ([2]; 1.5 gm, p 0.007*): 9.6 (0.007)*
- Stim-sens. myoclonus score ([2]; 1.5 gm, p 0.11): 3.2 (0.11)
- Action myoclonus score ([2]; 1.5 gm, p 0.122): 26.8 (0.122)
- Myoclonus at rest score ([2]; 1.5 gm, p 0.247): 1.2 (0.247)
- Stim-sens. myoclonus score ([2]; 2 gm, p 0.001**): 2.8 (0.001)**
- Action myoclonus score ([2]; 2 gm, p 0.005*): 30.9 (0.005)*
- Myoclonus at rest score ([2]; 2 gm, p 0.047*): 3.6 (0.047)*
- Functional performance score ([2]; 2 gm, p <0.001**): 6.0 (<0.001)**
- Functional performance score ([2]; 2.5 gm, p 0.002**): 7.4 (0.002)**
- Action myoclonus score ([2]; 2.5 gm, p 0.046*): 26.2 (0.046)*
- Myoclonus at rest score ([2]; 2.5 gm, p 0.055): 0.6 (0.055)
- Stim-sens. myoclonus score ([2]; 2.5 gm, p <0.001**): 1.4 (<0.001)**
- Stim-sens. myoclonus score ([2]; 3.0 gm, p 0.02*): 1.0 (0.02)*
- Functional performance score ([2]; 3.0 gm, p 0.059): 6.9 (0.059)
- Action myoclonus score ([2]; 3.0 gm, p 0.064): 33.0 (0.064)
- Myoclonus at rest score ([2]; 3.0 gm, p 0.129): 0.75 (0.129)
- Myoclonus at rest score ([2]; individ. dose 1 gm, p 0.137 vs pre-treatment): 4.9 (0.137)
- dose of maximal improvement ([2]; myoclonus measures): 2.5 gm
- Myoclonus at rest ([2]; patient #3 (MD), after receiving 3 mg (so in the source)): disappeared
- stimulus-sensitive myoclonus to sound and pinprick ([2]; patient #4 (PME), after 3 gm): only stimulus-sensitive myoclonus of the right hand remained
- action myoclonus on finger-to-nose ([2]; patient #6 (PHM), standing unassisted now possible): significantly improved
- Myoclonus at rest ([2]; patient #11 (PHM), after receiving 2.5 mg (so in the source)): disappeared
- functional performance, using a soupspoon ([2]; patients #9 (PHM) and #5 (PME)): improved
- dose titration limited by ataxia [3]: 20%
- dose titration limited by sedation [3]: 60%
- mild, transient side effect: dizziness [3]: 35%
- mild, transient side effect: emotionality [3]: 20%
- mild, transient side effect: headache [3]: 20%
- mild, transient side effect: nausea [3]: 10%
- tolerability of daytime dosing [3]: acceptable
